Measurements taken from US20260274892A1, “MACROCYCLIC BROAD SPECTRUM ANTIBIOTICS” (RQx Pharmaceuticals, Inc., priority 2017, published 2026).

What was measured:
[1] = tested on: Methicillin Resistant Staphylococcus aureus strain USA 200; experiment: Minimum inhibitory concentration (MIC), CLSI broth micro-dilution, S. aureus; assay type: cell-based; settings: Staphylococcus aureus, MRSA / USA200; Table 6; MRSA USA 200; cation adjusted Mueller Hinton Broth + 0.002% Tween-80; 35° C., 22 hours
Outline: (§1)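 Antibacterial potency is measured as MIC by the CLSI broth dilution method. Bacteria at OD600 0.0005 in Tween-80-supplemented cation-adjusted Mueller Hinton broth face ten twofold compound dilutions for 22 h at 35° C.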

[2] = tested on: Escherichia coli ATCC 25922; experiment: Minimum inhibitory concentration (MIC), CLSI broth micro-dilution, E. coli; assay type: cell-based; settings: Escherichia coli, ATCC25922, 22 h, Table 6, cation adjusted Mueller Hinton Broth + 0.002% Tween-80, 35° C.
Outline: as §1

SMILES: Cc1nc(-c2ccc(OCCC(C)(C)C)cc2)nc(C)c1C(=O)N[C@@H](CCN)C(=O)N(C)[C@@H]1C(=O)N[C@@H](C)C(=O)N[C@H](C(=O)NCC#N)Cc2ccc(OCCN)c(c2)-c2cc1ccc2OCCN (racemic) [Compound 338, rac-(8S,11S,14S)-3,18-bis(2-aminoethoxy)-N-(cyanomethyl)-11-methyl-14-[methyl-[rac-(2S)-4-amino-2-[[2-[4-(3,3-dimethylbutoxy)phenyl]-4,6-dimethyl-pyrimidine-5-carbonyl]amino]butanoyl]amino]-10,13-dioxo-9,12-diazatricyclo[13.3.1.12,6]icosa-1(18),2(20),3,5,15(19),16-hexaene-8-carboxamide]
- MIC [1]: 0.012 µM
- MIC [2]: 0.13 µM

SMILES: Cc1nc(-c2ccc(C(C)(C)C)cc2)ncc1C(=O)N[C@@H](CCN)C(=O)N(C)[C@@H]1C(=O)N[C@@H](C)C(=O)N[C@H](C(=O)NCC#N)Cc2ccc(O)c(c2)-c2cc1ccc2O (racemic) [Compound 431, rac-(8S,11S,14S)-N-(cyanomethyl)-3,18-dihydroxy-11-methyl-14-[methyl-[rac-(2S)-4-amino-2-[[2-(4-tert-butylphenyl)-4-methyl-pyrimidine-5-carbonyl]amino]butanoyl]amino]-10,13-dioxo-9,12-diazatricyclo[13.3.1.12,6]icosa-1(18),2(20),3,5,15(19),16-hexaene-8-carboxamide]
- MIC [1]: 0.18 µM
- MIC [2]: 3.9 µM

SMILES: CCCc1ccc(-c2ccc(C(=O)N[C@@H](CCN)C(=O)N(C)[C@@H]3C(=O)N[C@@H](C)C(=O)N[C@H](C(=O)NCC#N)Cc4ccc(OCCN)c(c4)-c4cc3ccc4OCCN)c(C)n2)cc1 (racemic) [Compound 208, rac-(8S,11S,14S)-3,18-bis(2-aminoethoxy)-N-(cyanomethyl)-11-methyl-14-[methyl-[rac-(2S)-4-amino-2-[[2-methyl-6-(4-propylphenyl)pyridine-3-carbonyl]amino]butanoyl]amino]-10,13-dioxo-9,12-diazatricyclo[13.3.1.12,6]icosa-1(18),2(20),3,5,15(19),16-hexaene-8-carboxamide]
- MIC [1]: 0.017 µM
- MIC [2]: 0.14 µM

SMILES: C=Cc1ccc(-c2nc(C)c(C(=O)N[C@@H](CCN)C(=O)N(C)[C@@H]3C(=O)N[C@@H](C)C(=O)N[C@H](C(=O)NCC#N)Cc4ccc(OCCN)c(c4)-c4cc3ccc4OCCN)c(C)n2)cc1 (racemic) [Compound 265, rac-(8S,11S,14S)-3,18-bis(2-aminoethoxy)-N-(cyanomethyl)-11-methyl-14-[methyl-[rac-(2S)-4-amino-2-[[4,6-dimethyl-2-(4-vinylphenyl)pyrimidine-5-carbonyl]amino]butanoyl]amino]-10,13-dioxo-9,12-diazatricyclo[13.3.1.12,6]icosa-1(18),2(20),3,5,15(19),16-hexaene-8-carboxamide]
- MIC [1]: 0.068 µM
- MIC [2]: 0.41 µM

SMILES: Cc1nc(-c2ccc(OC3CCCCC3)cc2)nc(C)c1C(=O)N[C@@H](CO)C(=O)N(C)[C@@H]1C(=O)N[C@@H](C)C(=O)N[C@H](C(=O)NCC#N)Cc2ccc(OCCN)c(c2)-c2cc1ccc2OCCN [Compound 507, (8S,11S,14S)-3,18-bis(2-aminoethoxy)-N-(cyanomethyl)-14-[[(2S)-2-[[2-[4-(cyclohexoxy)phenyl]-4,6-dimethyl-pyrimidine-5-carbonyl]amino]-3-hydroxy-propanoyl]-methyl-amino]-11-methyl-10,13-dioxo-9,12-diazatricyclo[13.3.1.12,6]icosa-1(18),2(20),3,5,15(19),16-hexaene-8-carboxamide]
- MIC [1]: 0.063 µM
- MIC [2]: 0.38 µM

SMILES: CCCCCc1ccc(-c2nc(C)c(C(=O)N[C@@H](CCN)C(=O)N(C)[C@@H]3C(=O)N[C@@H](C)C(=O)N[C@H](C(=O)NCC#N)Cc4ccc(OCCN)c(c4)-c4cc3ccc4OCCN)o2)cc1 (racemic) [Compound 381, 4-methyl-2-(4-pentylphenyl)-N-[rac-(1S)-3-amino-1-[methyl-[rac-(7S,10S,13S)-3,18-bis(2-aminoethoxy)-13-(cyanomethylcarbamoyl)-10-methyl-8,11-dioxo-9,12-diazatricyclo[13.3.1.12,6]icosa-1(19),2,4,6(20),15,17-hexaen-7-yl]carbamoyl]propyl]oxazole-5-carboxamide]
- MIC [1]: 0.067 µM
- MIC [2]: 4.3 µM

SMILES: Cc1nc(-c2ccc(OCCC(C)(C)C)cc2)nc(C)c1C(=O)N[C@@H](CCN)C(=O)N(C)[C@@H]1C(=O)N[C@@H](C)C(=O)N[C@H](C(=O)NCC#N)Cc2ccc(O)c(c2)-c2cc1ccc2OCCN (racemic) [Compound 539, rac-(8S,11S,14S)-18-(2-aminoethoxy)-N-(cyanomethyl)-3-hydroxy-11-methyl-14-[methyl-[rac-(2S)-4-amino-2-[[2-[4-(3,3-dimethylbutoxy)phenyl]-4,6-dimethyl-pyrimidine-5-carbonyl]amino]butanoyl]amino]-10,13-dioxo-9,12-diazatricyclo[13.3.1.12,6]icosa-1(18),2(20),3,5,15(19),16-hexaene-8-carboxamide]
- MIC [1]: 0.023 µM
- MIC [2]: 0.15 µM

SMILES: Cc1nc(-c2ccc(C(C)(C)C)cc2)ncc1C(=O)N[C@@H](CCN)C(=O)N(C)[C@@H]1C(=O)N[C@@H](CO)C(=O)N[C@H](C(=O)NCC#N)Cc2ccc(OCCN)c(c2)-c2cc1ccc2OCCN (racemic) [Compound 477, rac-(8S,11S,14S)-3,18-bis(2-aminoethoxy)-N-(cyanomethyl)-11-(hydroxymethyl)-14-[methyl-[rac-(2S)-4-amino-2-[[2-(4-tert-butylphenyl)-4-methyl-pyrimidine-5-carbonyl]amino]butanoyl]amino]-10,13-dioxo-9,12-diazatricyclo[13.3.1.12,6]icosa-1(18),2(20),3,5,15(19),16-hexaene-8-carboxamide]
- MIC [1]: 0.26 µM
- MIC [2]: 3.2 µM

SMILES: CCCCCCc1ccc(C(=O)N[C@@H](CCN)C(=O)N(CCO)[C@@H]2C(=O)N[C@@H](C)C(=O)N[C@H](C(=O)NCC#N)Cc3ccc(O)c(c3)-c3cc2ccc3O)c(C)c1 (racemic) [Compound 475, rac-(8S,11S,14S)-N-(cyanomethyl)-3,18-dihydroxy-14-[2-hydroxyethyl-[rac-(2S)-4-amino-2-[(4-hexyl-2-methyl-benzoyl)amino]butanoyl]amino]-11-methyl-10,13-dioxo-9,12-diazatricyclo[13.3.1.12,6]icosa-1(18),2(20),3,5,15(19),16-hexaene-8-carboxamide]
- MIC [1]: 0.6 µM
- MIC [2]: 4.8 µM

SMILES: Cc1cc(-c2ccc(C(C)(C)C)cc2F)nc(C)c1C(=O)N[C@@H](CCN)C(=O)N(C)[C@@H]1C(=O)N[C@@H](C)C(=O)N[C@H](C(=O)NCC#N)Cc2ccc(OCCN)c(c2)-c2cc1ccc2OCCN (racemic) [Compound 363, rac-(8S,11S,14S)-3,18-bis(2-aminoethoxy)-N-(cyanomethyl)-11-methyl-14-[methyl-[rac-(2S)-4-amino-2-[[6-(4-tert-butyl-2-fluoro-phenyl)-2,4-dimethyl-pyridine-3-carbonyl]amino]butanoyl]amino]-10,13-dioxo-9,12-diazatricyclo[13.3.1.12,6]icosa-1(18),2(20),3,5,15(19),16-hexaene-8-carboxamide]
- MIC [1]: 0.016 µM
- MIC [2]: 0.19 µM

SMILES: CCCCCCCc1ccc(C(=O)N[C@@H](CCN)C(=O)N(C)[C@@H]2C(=O)N[C@@H](C3CC3)C(=O)N[C@H](C(=O)NCC#N)Cc3ccc(OCCN)c(c3)-c3cc2ccc3OCCN)c(C)c1 (racemic) [Compound 478, rac-(8S,11S,14S)-3,18-bis(2-aminoethoxy)-N-(cyanomethyl)-11-cyclopropyl-14-[methyl-[rac-(2S)-4-amino-2-[(4-heptyl-2-methyl-benzoyl)amino]butanoyl]amino]-10,13-dioxo-9,12-diazatricyclo[13.3.1.12,6]icosa-1(18),2(20),3,5,15(19),16-hexaene-8-carboxamide]
- MIC [1]: 0.071 µM
- MIC [2]: 1.1 µM

SMILES: CCCCCCCc1ccc(-c2ncc(C(=O)N[C@@H](CCN)C(=O)N(C)[C@@H]3C(=O)N[C@@H](C)C(=O)N[C@H](C(=O)NCC#N)Cc4ccc(OCCN)c(c4)-c4cc3ccc4OCCN)c(C)n2)cc1 (racemic) [Compound 240, rac-(8S,11S,14S)-3,18-bis(2-aminoethoxy)-N-(cyanomethyl)-11-methyl-14-[methyl-[rac-(2S)-4-amino-2-[[2-(4-heptylphenyl)-4-methyl-pyrimidine-5-carbonyl]amino]butanoyl]amino]-10,13-dioxo-9,12-diazatricyclo[13.3.1.12,6]icosa-1(18),2(20),3,5,15(19),16-hexaene-8-carboxamide]
- MIC [1]: 0.012 µM
- MIC [2]: 0.13 µM

SMILES: CCCCCCCCc1ccc(C(=O)N[C@@H](CCC(=O)NCCO)C(=O)N(C)[C@@H]2C(=O)N[C@@H](C)C(=O)N[C@H](C(=O)NCC#N)Cc3ccc(OCCN)c(c3)-c3cc2ccc3OCCN)c(C)c1 (racemic) [Compound 446, rac-(2S)-N′-(2-hydroxyethyl)-N-methyl-2-[(2-methyl-4-octyl-benzoyl)amino]-N-[rac-(7S,10S,13S)-3,18-bis(2-aminoethoxy)-13-(cyanomethylcarbamoyl)-10-methyl-8,11-dioxo-9,12-diazatricyclo[13.3.1.12,6]icosa-1(19),2,4,6(20),15,17-hexaen-7-yl]pentanediamide]
- MIC [1]: 0.032 µM
- MIC [2]: 4.1 µM

SMILES: Cc1nc(-c2ccc3c(c2)OCCC32CC2)nc(C)c1C(=O)N[C@@H](CCN)C(=O)N(C)[C@@H]1C(=O)N[C@@H](C)C(=O)N[C@H](C(=O)NCC#N)Cc2ccc(OCCN)c(c2)-c2cc1ccc2OCCN (racemic) [Compound 285, rac-(8S,11S,14S)-3,18-bis(2-aminoethoxy)-N-(cyanomethyl)-11-methyl-14-[methyl-[rac-(2S)-4-amino-2-[(4,6-dimethyl-2-spiro[chromane-4,1′-cyclopropane]-7-yl-pyrimidine-5-carbonyl)amino]butanoyl]amino]-10,13-dioxo-9,12-diazatricyclo[13.3.1.12,6]icosa-1(18),2(20),3,5,15(19),16-hexaene-8-carboxamide]
- MIC [1]: 0.047 µM
- MIC [2]: 0.19 µM
